Source: US12612409B2, “Pyrrolopyrimidines as CFTR potentiators” (Cystic Fibrosis Foundation, priority 2016, dated 2026)

Columns and labels:
[1] = target: T1, recombinant F508del V470 CFTR in Fischer rat thyroid (FRT) cells (Homo sapiens, UniProt P13569, DEL508-508); experiment: FRT ion flux assay of F508del CFTR potentiation; assay type: cell-based; conditions: FRT cells expressing F508del V470 CFTR, forskolin 20 uM, 27° C. pre-incubation
T1 construct: expressed in transfected cells
Outline: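 Potentiation read as YFP quench ~21 s after iodide buffer addition, as second/initial fluorescence ratio normalised between DMSO (0%) and reference potentiator (100%).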

[2] = target: T2, CFTR in F508del/F508del primary CF hBE cells (Homo sapiens, UniProt P13569, DEL508-508); experiment: Ussing chamber electrophysiology assay of CFTR potentiation in F508del/F508del CF bronchial epithelial cells (27° C.); assay type: cell-based
T2 construct: Primary cystic fibrosis human bronchial epithelial (CF hBE) cells were expanded and cultured; endogenous in cells; host or cells: primary CF human bronchial epithelial cells, genotype F508del/F508del
Outline: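 Short-circuit current was recorded under zero-voltage clamp across primary CF bronchial epithelia cultured >30 days at air/liquid interface, bathed apically and basolaterally in HEPES-buffered saline. Sequential additions: amiloride (30 uM), forskolin (10 uM), compound at 4 increasing levels, CFTRinh-172 (20 uM). Responses normalised between DMSO (0%) and maximal positive-control potentiator (100%).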

T2 sequence (P13569 with tags, fused parts or gaps DEL508-508): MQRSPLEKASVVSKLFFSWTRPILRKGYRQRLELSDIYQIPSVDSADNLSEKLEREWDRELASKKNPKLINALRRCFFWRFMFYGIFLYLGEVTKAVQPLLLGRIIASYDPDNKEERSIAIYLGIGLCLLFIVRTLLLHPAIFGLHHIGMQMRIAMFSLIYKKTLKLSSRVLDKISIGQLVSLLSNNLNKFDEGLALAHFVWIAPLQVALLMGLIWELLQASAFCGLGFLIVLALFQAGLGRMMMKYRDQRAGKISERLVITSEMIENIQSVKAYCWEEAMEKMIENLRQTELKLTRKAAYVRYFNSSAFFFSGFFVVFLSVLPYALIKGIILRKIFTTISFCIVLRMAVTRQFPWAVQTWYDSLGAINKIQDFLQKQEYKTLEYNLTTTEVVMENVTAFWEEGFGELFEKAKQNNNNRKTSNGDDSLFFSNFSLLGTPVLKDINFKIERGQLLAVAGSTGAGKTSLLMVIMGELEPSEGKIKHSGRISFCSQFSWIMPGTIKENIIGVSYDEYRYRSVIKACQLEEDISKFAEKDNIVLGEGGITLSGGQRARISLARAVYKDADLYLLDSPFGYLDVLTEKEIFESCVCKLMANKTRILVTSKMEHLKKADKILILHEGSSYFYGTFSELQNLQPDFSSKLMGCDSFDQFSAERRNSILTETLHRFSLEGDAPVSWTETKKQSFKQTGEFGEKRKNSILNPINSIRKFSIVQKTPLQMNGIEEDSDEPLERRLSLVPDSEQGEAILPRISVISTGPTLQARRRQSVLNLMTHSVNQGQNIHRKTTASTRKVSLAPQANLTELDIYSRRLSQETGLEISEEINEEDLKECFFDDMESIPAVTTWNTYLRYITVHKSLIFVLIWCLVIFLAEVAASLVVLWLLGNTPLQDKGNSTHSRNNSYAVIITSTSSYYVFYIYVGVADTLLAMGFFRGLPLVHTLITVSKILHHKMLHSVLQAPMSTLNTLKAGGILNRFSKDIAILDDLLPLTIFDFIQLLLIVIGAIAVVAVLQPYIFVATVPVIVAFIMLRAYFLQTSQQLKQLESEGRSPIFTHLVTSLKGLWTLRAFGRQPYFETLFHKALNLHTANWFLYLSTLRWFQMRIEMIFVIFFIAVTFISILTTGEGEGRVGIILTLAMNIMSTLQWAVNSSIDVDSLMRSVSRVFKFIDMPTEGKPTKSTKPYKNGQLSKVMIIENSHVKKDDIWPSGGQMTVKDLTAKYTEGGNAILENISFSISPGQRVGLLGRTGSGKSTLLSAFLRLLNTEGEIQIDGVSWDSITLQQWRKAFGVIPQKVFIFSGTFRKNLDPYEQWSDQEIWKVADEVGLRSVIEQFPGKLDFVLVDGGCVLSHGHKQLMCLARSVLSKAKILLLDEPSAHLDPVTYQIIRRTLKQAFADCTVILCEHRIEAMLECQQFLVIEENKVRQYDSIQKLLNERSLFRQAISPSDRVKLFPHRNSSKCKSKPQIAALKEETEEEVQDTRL
T1 sequence (P13569 with tags, fused parts or gaps DEL508-508): as above

Structure (SMILES): Cc1ccc(-c2cn(C(C)c3cnc(-c4ccccc4F)[nH]3)c3ncnc(N)c23)cc1F (centres unmarked) [Example 68, 5-(3-Fluoro-4-methylphenyl)-7-{1-[2-(2-fluorophenyl)-1H-imidazol-5-yl]ethyl}-7H-pyrrolo[2,3-d]pyrimidin-4-amine]
- EC50 [1]: 0.112 µM
- EC50 [2]: 0.0261 µM

Structure (SMILES): CC(c1cnc(-c2ccccc2F)[nH]1)n1cc(-c2ccc(-n3nccn3)cc2)c2c(N)ncnc21 (centres unmarked) [Example 70, 7-{1-[2-(2-Fluorophenyl)-1H-imidazol-5-yl]ethyl}-5-[4-(2H-1,2,3-triazol-2-yl)phenyl]-7H-pyrrolo[2,3-d]pyrimidin-4-amine]
- EC50 [1]: 0.11 µM
- EC50 [2]: 0.0307 µM

Structure (SMILES): COc1cc(C#N)cc(-c2cn(Cc3cn(-c4ccccc4F)nn3)c3ncnc(N)c23)c1 [Example 72, 3-(4-Amino-7-{[1-(2-fluorophenyl)-1H-1,2,3-triazol-4-yl]methyl}-7H-pyrrolo[2,3-d]pyrimidin-5-yl)-5-methoxybenzonitrile]
- EC50 [1]: 0.186 µM
- EC50 [2]: 0.057 µM

Structure (SMILES): Nc1ncnc2c1c(-c1ccc3c(c1)CCO3)cn2Cc1cn(-c2ccccc2F)nn1 [Example 74, 5-(2,3-Dihydro-1-benzofuran-5-yl)-7-{[1-(2-fluorophenyl)-1H-1,2,3-triazol-4-yl]methyl}-7H-pyrrolo[2,3-d]pyrimidin-4-amine]
- EC50 [1]: 0.328 µM
- EC50 [2]: 0.059 µM

Structure (SMILES): CCOc1ccc(-c2cn(Cc3cn(-c4ccccc4F)nn3)c3ncnc(N)c23)cc1F [Example 75, 5-(4-Ethoxy-3-fluorophenyl)-7-{[1-(2-fluorophenyl)-1H-1,2,3-triazol-4-yl]methyl}-7H-pyrrolo[2,3-d]pyrimidin-4-amine]
- EC50 [1]: 0.0996 µM
- EC50 [2]: 0.038 µM

Structure (SMILES): Nc1ncnc2c1c(-c1ccc(OC3CC3)cc1)cn2Cc1cn(-c2ccccc2F)nn1 [Example 77, 5-[4-(Cyclopropyloxy)phenyl]-7-{[1-(2-fluorophenyl)-1H-1,2,3-triazol-4-yl]methyl}-7H-pyrrolo[2,3-d]pyrimidin-4-amine]
- EC50 [1]: 0.0625 µM
- EC50 [2]: 0.0174 µM

Structure (SMILES): COc1cc(C#N)ccc1-c1cn(Cc2cn(-c3ccccc3F)nn2)c2ncnc(N)c12 [Example 79, 4-(4-Amino-7-{[1-(2-fluorophenyl)-1H-1,2,3-triazol-4-yl]methyl}-7H-pyrrolo[2,3-d]pyrimidin-5-yl)-3-methoxybenzonitrile]
- EC50 [1]: 0.0752 µM
- EC50 [2]: 0.15 µM

Structure (SMILES): Nc1ncnc2c1c(-c1ccc3[nH]ccc3c1)cn2Cc1cn(-c2ccccc2F)nn1 [Example 81, 7-{[1-(2-Fluorophenyl)-1H-1,2,3-triazol-4-yl]methyl}-5-(1H-indol-5-yl)-7H-pyrrolo[2,3-d]pyrimidin-4-amine]
- EC50 [1]: 0.379 µM
- EC50 [2]: 0.338 µM

Structure (SMILES): Nc1ncnc2c1c(-c1ccc(OC(F)F)cc1)cn2Cc1cn(-c2ccccc2F)nn1 [Example 83, 5-[4-(Difluoromethoxy)phenyl]-7-{[1-(2-fluorophenyl)-1H-1,2,3-triazol-4-yl]methyl}-7H-pyrrolo[2,3-d]pyrimidin-4-amine]
- EC50 [1]: 0.0719 µM
- EC50 [2]: 0.0398 µM

Structure (SMILES): COc1ccc(-c2cn(Cc3cn(-c4ccccc4F)nn3)c3ncnc(N)c23)cc1 [Example 85, 7-{[1-(2-Fluorophenyl)-1H-1,2,3-triazol-4-yl]methyl}-5-(4-methoxyphenyl)-7H-pyrrolo[2,3-d]pyrimidin-4-amine]
- EC50 [1]: 0.0734 µM
- EC50 [2]: 0.0569 µM

Structure (SMILES): Cn1ncc2cc(-c3cn(Cc4cn(-c5ccccc5F)nn4)c4ncnc(N)c34)ccc21 [Example 86, 7-{[1-(2-Fluorophenyl)-1H-1,2,3-triazol-4-yl]methyl}-5-(1-methyl-1H-indazol-5-yl)-7H-pyrrolo[2,3-d]pyrimidin-4-amine]
- EC50 [1]: 0.539 µM
- EC50 [2]: 0.659 µM

Structure (SMILES): COc1ccc(-c2cn(C(C)c3cn(-c4ccccc4F)nn3)c3ncnc(N)c23)c(OC)c1 (centres unmarked) [Example 87, 5-(2,4-Dimethoxyphenyl)-7-{1-[1-(2-fluorophenyl)-1H-1,2,3-triazol-4-yl]ethyl}-7H-pyrrolo[2,3-d]pyrimidin-4-amine]
- EC50 [1]: 0.102 µM
- EC50 [2]: 0.055 µM

Structure (SMILES): CSc1ccc(-c2cn(C(C)c3cn(-c4ccccc4F)nn3)c3ncnc(N)c23)cc1 (centres unmarked) [Example 88, 7-{1-[1-(2-Fluorophenyl)-1H-1,2,3-triazol-4-yl]ethyl}-5-[4-(methylsulfanyl)phenyl]-7H-pyrrolo[2,3-d]pyrimidin-4-amine]
- EC50 [1]: 0.0413 µM
- EC50 [2]: 0.0382 µM

Structure (SMILES): CC(c1cn(-c2ccccc2F)nn1)n1cc(-c2ccc(OC(F)F)cc2)c2c(N)ncnc21 (centres unmarked) [Example 89, 5-[4-(Difluoromethoxy)phenyl]-7-{1-[1-(2-fluorophenyl)-1H-1,2,3-triazol-4-yl]ethyl}-7H-pyrrolo[2,3-d]pyrimidin-4-amine]
- EC50 [1]: 0.0738 µM
- EC50 [2]: 0.0359 µM

Structure (SMILES): CSc1ccc(-c2cn(C(C)c3cn(-c4ccccc4F)nn3)c3ncnc(N)c23)c(F)c1 (centres unmarked) [Example 90, 5-[2-Fluoro-4-(methylsulfanyl)phenyl]-7-{1-[1-(2-fluorophenyl)-1H-1,2,3-triazol-4-yl]ethyl}-7H-pyrrolo[2,3-d]pyrimidin-4-amine]
- EC50 [1]: 0.0455 µM
- EC50 [2]: 0.0348 µM

Structure (SMILES): CC(c1cn(-c2ccccc2F)nn1)n1cc(-c2ccccc2)c2c(N)ncnc21 (centres unmarked) [Example 94, 7-{1-[1-(2-Fluorophenyl)-1H-1,2,3-triazol-4-yl]ethyl}-5-phenyl-7H-pyrrolo[2,3-d]pyrimidin-4-amine]
- EC50 [1]: 0.361 µM
- EC50 [2]: 0.14 µM

Structure (SMILES): CC(=O)c1ccc(-c2cn(C(C)c3cn(-c4ccccc4F)nn3)c3ncnc(N)c23)cc1 (centres unmarked) [Example 96, 1-[4-(4-Amino-7-{1-[1-(2-fluorophenyl)-1H-1,2,3-triazol-4-yl]ethyl}-7H-pyrrolo[2,3-d]pyrimidin-5-yl)phenyl]ethanone]
- EC50 [1]: 0.0986 µM
- EC50 [2]: 0.133 µM

Structure (SMILES): CC(c1cn(-c2ccccc2F)nn1)n1cc(-c2cccc(C(F)(F)F)c2)c2c(N)ncnc21 (centres unmarked) [Example 97, 7-{1-[1-(2-Fluorophenyl)-1H-1,2,3-triazol-4-yl]ethyl}-5-[3-(trifluoromethyl)phenyl]-7H-pyrrolo[2,3-d]pyrimidin-4-amine]
- EC50 [1]: 0.231 µM
- EC50 [2]: 0.164 µM

Structure (SMILES): CC(c1cn(-c2ccccc2F)nn1)n1cc(-c2ccc(Cl)c(F)c2)c2c(N)ncnc21 (centres unmarked) [Example 98, 5-(4-Chloro-3-fluorophenyl)-7-{1-[1-(2-fluorophenyl)-1H-1,2,3-triazol-4-yl]ethyl}-7H-pyrrolo[2,3-d]pyrimidin-4-amine]
- EC50 [1]: 0.0409 µM
- EC50 [2]: 0.028 µM

Structure (SMILES): CC(c1cn(-c2ccccc2F)nn1)n1cc(-c2cc(F)cc(Cl)c2)c2c(N)ncnc21 (centres unmarked) [Example 99, 5-(3-Chloro-5-fluorophenyl)-7-{1-[1-(2-fluorophenyl)-1H-1,2,3-triazol-4-yl]ethyl}-7H-pyrrolo[2,3-d]pyrimidin-4-amine]
- EC50 [1]: 0.05 µM
- EC50 [2]: 0.0359 µM

Structure (SMILES): CC(c1cc(-c2ccccc2F)no1)n1cc(-c2ccc(N(C)C)cc2)c2c(N)ncnc21 (centres unmarked) [Example 105, 5-[4-(Dimethylamino)phenyl]-7-{1-[3-(2-fluorophenyl)-1,2-oxazol-5-yl]ethyl}-7H-pyrrolo[2,3-d]pyrimidin-4-amine]
- EC50 [1]: 0.374 µM
- EC50 [2]: 0.075 µM

Structure (SMILES): CC(c1cc(-c2ccccc2F)no1)n1cc(-c2ccc(-c3ncns3)cc2)c2c(N)ncnc21 (centres unmarked) [Example 107, 7-{1-[3-(2-Fluorophenyl)-1,2-oxazol-5-yl]ethyl}-5-[4-(1,2,4-thiadiazol-5-yl)phenyl]-7H-pyrrolo[2,3-d]pyrimidin-4-amine]
- EC50 [1]: 0.172 µM
- EC50 [2]: 0.122 µM

Structure (SMILES): COc1cnc(-c2cn(C(C)c3cc(-c4ccccc4F)no3)c3ncnc(N)c23)cn1 (centres unmarked) [Example 191, 7-{1-[3-(2-Fluorophenyl)-1,2-oxazol-5-yl]ethyl}-5-(5-methoxypyrazin-2-yl)-7H-pyrrolo[2,3-d]pyrimidin-4-amine]
- EC50 [1]: 0.918 µM
- EC50 [2]: 0.103 µM

Structure (SMILES): N#Cc1ccc(-c2cn(Cc3cnc(-c4ccccc4F)[nH]3)c3ncnc(N)c23)cc1F [Example 192, 4-(4-Amino-7-{[2-(2-fluorophenyl)-1H-imidazol-5-yl]methyl}-7H-pyrrolo[2,3-d]pyrimidin-5-yl)-2-fluorobenzonitrile]
- EC50 [1]: 0.083 µM
- EC50 [2]: 0.118 µM

Structure (SMILES): COc1ncccc1-c1cn(Cc2cnc(-c3ccccc3F)[nH]2)c2ncnc(N)c12 [Example 193, 7-{[2-(2-Fluorophenyl)-1H-imidazol-5-yl]methyl}-5-(2-methoxypyridin-3-yl)-7H-pyrrolo[2,3-d]pyrimidin-4-amine]
- EC50 [1]: 0.0438 µM
- EC50 [2]: 0.117 µM

Structure (SMILES): COc1nc(C)ccc1-c1cn(Cc2cn(-c3ccccc3F)nn2)c2ncnc(N)c12 [Example 194, 7-{[1-(2-Fluorophenyl)-1H-1,2,3-triazol-4-yl]methyl}-5-(2-methoxy-6-methylpyridin-3-yl)-7H-pyrrolo[2,3-d]pyrimidin-4-amine]
- EC50 [1]: 0.0286 µM
- EC50 [2]: 0.0122 µM

Structure (SMILES): COc1ncc(F)cc1-c1cn(Cc2cn(-c3ccccc3F)nn2)c2ncnc(N)c12 [Example 195, 5-(5-Fluoro-2-methoxypyridin-3-yl)-7-{[1-(2-fluorophenyl)-1H-1,2,3-triazol-4-yl]methyl}-7H-pyrrolo[2,3-d]pyrimidin-4-amine]
- EC50 [1]: 0.0636 µM
- EC50 [2]: 0.0253 µM

Structure (SMILES): Nc1ncnc2c1c(-c1cccnc1OC(F)F)cn2Cc1cn(-c2ccccc2F)nn1 [Example 196, 5-[2-(Difluoromethoxy)pyridin-3-yl]-7-{[1-(2-fluorophenyl)-1H-1,2,3-triazol-4-yl]methyl}-7H-pyrrolo[2,3-d]pyrimidin-4-amine]
- EC50 [1]: 0.0156 µM
- EC50 [2]: 0.049 µM
